Like-named read-outs stand apart in the source and are kept apart here.
How the values were obtained:
reverse transcriptase = details: cited from earlier work
HIV-1 = test: inhibition of HIV-1 replication in PBL (p24 antigen in culture supernatant); type: cell-based; details: for P24 antigen in culture supernatant: drug-free control 372,835 pg/ml
Method: The concentration of virus-specificp24 antigen in the culture, and, therefore the ability of each drug to inhibit HIV replication was measured by their ability to inhibit production of the p24 antigen.
Inhibition of HIV-1 replication was determined using PBL from seronegative donors. PBL activated with 2 μg/ml PHA for 72 hrs were washed with medium and 10×10^6 cells were incubated for 4 hr at 37° C. (Mitsuya et al., PNAS USA 82:7096, […]) in 5 ml medium containing the appropriate concentration of the drug. The cells were then infected with 10^4 TCID50 of HIV (isolated CD 451) by the addition of 0.1 ml of virus preparation and gentle rocking of the cultures of 15 min intervals for 90 min at room temperature. The fluid volume was increased to 10ml and the cultures maintained at 37° C. in a humidified 5% CO2 -in-air atmosphere. On day 3 post-infection, half the cell-free fluid in each culture was removed and replaced with fresh medium containing the respective drug. The extent of HIV replication in a control and the experimental cultures was evaluated 7 days post-infection by quantifying the concentration of HIV-specific p24 antigen in an undiluted and 5-fold serial dilutions of the culture supernatants using commercial antigen-capture assay kits (DuPont, Billerica, Mass.). The concentration of HIV-specific p24 antigen in the 7 day supernatant fluid of a drug-free control culture was 372,835 pg/ml.

p24 gag protein of HIV = details: in vitro; Mitsuya et al. 1985; cited from earlier work
AIDS = details: cited from earlier work
[1] = in vivo; cited from earlier work
[2] = tested on: peripheral blood lymphocytes; test: uptake of radiolabelled drug by peripheral blood lymphocytes (PBL); type: in vitro ADME
Method: DP-AZT was therefore tested to determine if the problem of rapid elimination and inadequate permeability could be overcome.
PBL from HIV seronegative donors were also separated by standard Ficol-Hypaque gradient centrifugation. The lymphocytes were grown in RPMI 1640 supplemented with 15% heat-inactivated FBS, 100 U/ml penicillin, 100 μg/ml streptomycin and 2 μg/ml PHA. The cells were incubated for 4 days at 37° C. and uptake studies were done according to the procedure described above for H9 cells.

H9 cells = test: uptake of radiolabelled drug by H9 cells; type: in vitro ADME; details: for cellular uptake relative to AZT, in words: H9 cells (FIGS. 6, 7)
Method: The reaction was stopped by centrifugation at 13,000×g for 1 min. The cell free supernatant was discarded by aspiration and the cell pellet was washed with ice cold PBS to remove any traces of free radioactive drug. The cell pellet was resuspended in PBS and counted for radioactivity in a Tri-carb Packard liquid scintillation analyzer Model 1500 (Packard Instruments Co., Dowers Grove, Ill.) and the percentage of radioactivity was calculated. (All experiments were done in duplicate and repeated at least three times).

[3] = Richman et al. 1987; cited from earlier work
[4] = physical and chemical stability; type: physicochemical
Description: The general pattern of synthesis of DP-AZT is outlined in FIG. 1. Treatment of 3,-azido-2',3'-dideoxythymidine in the presence of DCC and 4-dimethyl amino pyridine in ethyl acetate yield the nicotinyl ester. The ester is then quarternized by refluxing it in acetone with methyl iodide. […] In addition to DP-AZT, other derivatives at the N-methyl site in particular can also be prepared.

[5] = hydrolysis of DP-AZT in mouse bone marrow cells; type: in vitro ADME; details: end of 4 hours of incubation, read-out: hydrolysis of the pro-drug
Method: (§1) In contrast, bone marrow cells were able to hydrolyze only 50% of the pro-drug at the end of 4 hours of incubation.
Bone marrow cells were obtained from femurs of 8-week old CD-1 mice. The femurs were removed asceptically and rinsed in RPMI-1640. Bone marrow cells were flushed with medium by using a 19-gauge needle and a single cell suspension was made by pipette action. These cells were used for hydrolytic experiments similar to described above for PBL.

[6] = hydrolysis of DP-AZT by human plasma in vitro; type: in vitro ADME; details: up to 4 hours in incubation
mouse bone marrow cells = test: bone marrow toxicity: inhibition of [3H]-thymidine uptake in murine bone marrow cells; type: cell-based; details: for less inhibition of [3H]-thymidine incorporation into bone marrow cells than AZT: relative to AZT, 60 h exposure, 12 h pulse
Method: The percent inhibition of [^3 H]-thymidine uptake was used as an indication of bone marrow toxicity (FIG. 5).
The bone marrow cells were obtained from CD-1 mice as described under Section 6.2.3, supra. Approximately 2×10^5 cells in 100 μl of medium were plated in a 96-well plate, 100 μl of drug solution at various concentrations (0-500 μM) was added, and the plate was incubated at 37° C. for 60 hr. [^3 H]-Thymidine (0.2 μc/well, specific activity 30 c/mmole) was pulsed for 12 hr, and at the end of 72 hr cells were harvested by using Skatron 7019 cell harvester.

[7] = tested on: peripheral blood lymphocytes; test: hydrolysis of DP-AZT to AZT in PBL; type: in vitro ADME; details: 500 μM DP-[3H]-AZT, 5×10^5 PBL, 37° C., 4 h
Method: as §1
Suspensions of 5×10^5 PBL (100 μl) in Eppendorf tubes were mixed with 100 μl of 500 μM DP-AZT and incubated at 37° C. At various time intervals (0 to 4 hrs), cell pellets were collected after centrifugation at 13,000×g for 1 min, washed with PBS and extracted with ice-cold 0.2 M perchloric acid. The acid extracts were clarified by centrifugation, neutralized with KOH, centrifuged to remove insoluble potassium perchlorate, evaporated to dryness under reduced pressure (Buchler Evapo-Mix apparatus) and constituted with 200 μl of methanol (Zimmerman et al., J. Biol. Chem. 262:5748, 1987).

[8] = hydrolysis of DP-AZT by rat liver microsomes; type: in vitro ADME; details: 15.5 mg protein/ml, 37° C., 0 to 4 h
Method: as §1
To 900 μl of rat liver microsomes containing 15.5 mg protein/ml (Wong et al., Biochem. Pharmacol. 37:473, 1988), 100 μl of DP-AZT (2 mg/ml dissolved in dimethylsulfoxide) was added and incubated at 37° C. in a water bath. At various time intervals (0 to 4 h) 100 μl of sample was withdrawn and added immediately to ice-cold methanol (400 μl).

HIV = details: Yamamoto et al. 1986; cited from earlier work
[9] = tested on: retrovirally infected mice; details: Watson et al. 1988; cited from earlier work
[10] = 0.5 μM drug, 7 days post-infection
[11] = 5.0 μM drug, 7 days post-infection
[12] = 10.0 μM drug, 7 days post-infection
[13] = Human immunodeficiency virus 1, PBL, 168 h, 0.5 μM drug, 7 days post-infection, read-out: p24 antigen, % reduction of control
[14] = Human immunodeficiency virus 1, PBL, 168 h, 5.0 μM drug, 7 days post-infection, read-out: p24 antigen, % reduction of control
[15] = Human immunodeficiency virus 1, PBL, 168 h, 10.0 μM drug, 7 days post-infection, read-out: p24 antigen, % reduction of control

Cc1cn([C@H]2C[C@H](N=[N+]=[N-])[C@@H](COP(=O)(O)OP(=O)(O)OP(=O)(O)O)O2)c(=O)[nH]c1=O [AZT triphosphate]
reverse transcriptase inhibition, in words (reverse transcriptase): competitive inhibitor of reverse transcriptase

Cc1cn([C@H]2C[C@H](N=[N+]=[N-])[C@@H](CO)O2)c(=O)[nH]c1=O [AZT, 3'-azido-2',3'-dideoxythymidine, reference compound]
P24 antigen in culture supernatant (HIV-1; [10]): 67,273 pg/ml
P24 antigen in culture supernatant (HIV-1; [11]): 1,758 pg/ml
P24 antigen in culture supernatant (HIV-1; [12]): 2,235 pg/ml
inhibition at 0.5 µM (HIV-1; [13]): 82%
inhibition at 5 µM (HIV-1; [14]): 99.5%
inhibition at 10 µM (HIV-1; [15]): 99.4%
expression of p24 gag protein of HIV, in words (p24 gag protein of HIV): blocks the expression of the p24 gag protein of HIV
mortality in comparison with placebo, in words (AIDS; Fischl et al. 1987): significant differences in mortality
progression of disease, in words (AIDS; individuals with AIDS-related complex, Fischl et al.): delay the progression of the disease
half-life in plasma, in words [1]: very short half-life in plasma
time to maximum intracellular concentration ([2]; 5 μM, PBL): 2 h
uptake linearity ([2]; 5 μM, PBL): linear for one hour
time to maximum intracellular concentration (H9 cells; 5 μM, H-9 cells): 2 h
uptake linearity (H9 cells; 5 μM, H-9 cells): linear for one hour
major adverse reactions [3]: nausea, myalgia and insomnia
reverse transcriptase inhibition, in words (reverse transcriptase): does not inhibit reverse transcriptase

Cc1cn([C@H]2C[C@H](N=[N+]=[N-])[C@@H](COC(=O)C3=CN(C)C=CC3)O2)c(=O)[nH]c1=O [DP-AZT, 5,-[(1,4-dihydro-1-methyl-3-pyridinylcarbonyl)oxy] -3,-azido-2',3'dideoxythymidine]
efficacy against HIV-1 relative to AZT, in words (HIV-1; 0.5 μM): significantly greater efficacy against HIV-1 than AZT had
P24 antigen in culture supernatant (HIV-1; [10]): 3,310 pg/ml
P24 antigen in culture supernatant (HIV-1; [11]): 475 pg/mL
P24 antigen in culture supernatant (HIV-1; [12]): 215 pg/mL
inhibition at 0.5 µM (HIV-1; [13]): 99.1%
inhibition at 5 µM (HIV-1; [14]): 99.9%
inhibition at 10 µM (HIV-1; [15]): 99.9%
inhibition at 0.5 µM (HIV-1; Human immunodeficiency virus 1, read-out: inhibition (p24 antigen)): 99%
air oxidation stability ([4]; during crystallization and drying): stable compound which does not undergo air oxidation
result of attempted chemical oxidation ([4]; hydrogen peroxide or sodium nitrate solution): hydrolysis of the ester producing AZT
metabolised at 4 h, 500 µM [5]: 50%
hydrolysis by human plasma in vitro [6]: not hydrolyzed
time to maximum intracellular concentration ([2]; 5 μM, PBL): 2 h
uptake linearity ([2]; 5 μM, PBL): linear for one hour
higher intracellular concentration than [3H]-AZT ([2]; PBL, 5 μM, relative to AZT): at least 50%
less inhibition of [3H]-thymidine incorporation into bone marrow cells than AZT (mouse bone marrow cells; 5 μM): 44%
less inhibition of [3H]-thymidine incorporation into bone marrow cells than AZT (mouse bone marrow cells; 10 μM): 59%
bone marrow toxicity relative to AZT, in words (mouse bone marrow cells; 5 and 10 μM): significantly less toxic than AZT
hydrolysis of the pro-drug [7]: complete hydrolysis of the pro-drug within four hours
hydrolysis by rat liver microsomes [8]: hydrolyzed by rat-liver microsomes (FIG. 4) in a manner similar to that observed in PBL
time to maximum intracellular concentration (H9 cells; 5 μM, H-9 cells): 2 h
uptake linearity (H9 cells; 5 μM, H-9 cells): linear for one hour
higher intracellular concentration than [3H]-AZT (H9 cells; H-9 cells, 5 μM, relative to AZT): at least 50%

Cc1cn([C@H]2C[C@H](N=[N+]=[N-])[C@@H](COC(=O)CN3CCN(c4ccccc4)CC3)O2)c(=O)[nH]c1=O [N-phenylpiperazine analogue]
cellular uptake relative to AZT, in words (H9 cells): improved cellular uptake

CC1=C(/C=C/C(C)=C/C=C/C(C)=C/C(=O)O)C(C)(C)CCC1 [Retinoic acid]
HIV replication, in words (HIV): inhibit HIV replication somewhat

Cc1cn([C@H]2C[C@H](N=[N+]=[N-])[C@@H](COC(=O)c3ccc[n+](C)c3)O2)c(=O)[nH]c1=O [compound 2]
hygroscopicity [4]: hygroscopic

Cc1cn([C@H]2C[C@H](N=[N+]=[N-])[C@@H](COC(=O)C(N)Cc3ccccc3)O2)c(=O)[nH]c1=O (some centres unmarked) [phenylalanine AZT analogue]
cellular uptake relative to AZT, in words ([2]; PBL (FIG. 8)): improved over AZT with respect to cellular uptake

CC1=C(/C=C/C(C)=C/C=C/C(C)=C/C(=O)OC[C@H]2O[C@@H](n3cc(C)c(=O)[nH]c3=O)C[C@@H]2N=[N+]=[N-])C(C)(C)CCC1 [retinoic acid ester of AZT]
cellular uptake relative to AZT, in words (H9 cells): a substantial improvement over cellular uptake of AZT

Cc1cn([C@H]2C[C@H](N=[N+]=[N-])[C@@H](COC(=O)C(N)Cc3ccc(O)cc3)O2)c(=O)[nH]c1=O (some centres unmarked) [tyrosine AZT analogue]
cellular uptake relative to AZT, in words (H9 cells): improved over AZT with respect to cellular uptake

Vitamin A
activated macrophages and death rate, in words [9]: increased numbers of activated macrophages and decreased death rate

Reference: US5026688A (Administrators of the Tulane Educational Fund, priority 1988, dated 1991)
